The target in one assay is T1, Cls (Homo sapiens, UniProt P09871).
T1 sequence (P09871 438-688 limits assumed): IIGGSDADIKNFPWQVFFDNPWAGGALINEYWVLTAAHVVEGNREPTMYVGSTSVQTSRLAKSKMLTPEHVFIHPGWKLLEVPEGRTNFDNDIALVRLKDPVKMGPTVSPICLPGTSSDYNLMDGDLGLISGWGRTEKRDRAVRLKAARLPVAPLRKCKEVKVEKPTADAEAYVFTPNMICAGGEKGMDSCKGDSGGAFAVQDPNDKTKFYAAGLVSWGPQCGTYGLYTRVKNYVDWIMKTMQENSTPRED
T1 sequence (P09871 16-437 limits assumed): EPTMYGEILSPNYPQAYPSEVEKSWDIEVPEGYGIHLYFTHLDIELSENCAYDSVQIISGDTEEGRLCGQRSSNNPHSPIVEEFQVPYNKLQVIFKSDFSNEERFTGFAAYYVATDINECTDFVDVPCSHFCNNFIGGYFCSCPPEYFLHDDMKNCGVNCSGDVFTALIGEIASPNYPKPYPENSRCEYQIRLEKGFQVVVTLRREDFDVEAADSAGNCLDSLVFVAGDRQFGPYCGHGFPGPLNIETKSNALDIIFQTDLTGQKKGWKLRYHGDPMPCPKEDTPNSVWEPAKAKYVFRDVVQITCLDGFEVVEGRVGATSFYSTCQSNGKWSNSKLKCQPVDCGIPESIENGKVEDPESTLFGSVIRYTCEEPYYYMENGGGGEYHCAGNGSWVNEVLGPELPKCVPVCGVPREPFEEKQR
Kind of assay: Anti-Cl esterase activity, Cls (ATEE hydrolysis). The following applies: hydrolysis of ATEE; read-out: Anti-Cl activity, Cls (50% inhibition). The assay is classed as biochemical. How it is done:
The anti-Cl esterase (Clr, Cls) activity was determined according to the method of Okamura et al. [K. Okamura, M. Muramatsu and B. Fujii, Biochem. Biophys. […] The figures in Table 2 have the following meanings:
Cls: Molar concentration of the test compound which inhibits 50% of the ability of Cls to hydrolyse ATEE (acetyltyrosin ethyl ester).

For another assay, the target named is T2, Clr (Homo sapiens, UniProt P00736).
T2 sequence (P00736 464-705 limits assumed): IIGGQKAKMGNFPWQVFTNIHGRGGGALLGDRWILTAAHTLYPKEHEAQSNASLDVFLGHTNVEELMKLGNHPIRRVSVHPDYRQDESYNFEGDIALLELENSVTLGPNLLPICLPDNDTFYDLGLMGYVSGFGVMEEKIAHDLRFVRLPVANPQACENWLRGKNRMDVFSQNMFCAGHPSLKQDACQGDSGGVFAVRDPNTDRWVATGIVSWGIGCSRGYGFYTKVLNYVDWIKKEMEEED
T2 sequence (P00736 18-463 limits assumed): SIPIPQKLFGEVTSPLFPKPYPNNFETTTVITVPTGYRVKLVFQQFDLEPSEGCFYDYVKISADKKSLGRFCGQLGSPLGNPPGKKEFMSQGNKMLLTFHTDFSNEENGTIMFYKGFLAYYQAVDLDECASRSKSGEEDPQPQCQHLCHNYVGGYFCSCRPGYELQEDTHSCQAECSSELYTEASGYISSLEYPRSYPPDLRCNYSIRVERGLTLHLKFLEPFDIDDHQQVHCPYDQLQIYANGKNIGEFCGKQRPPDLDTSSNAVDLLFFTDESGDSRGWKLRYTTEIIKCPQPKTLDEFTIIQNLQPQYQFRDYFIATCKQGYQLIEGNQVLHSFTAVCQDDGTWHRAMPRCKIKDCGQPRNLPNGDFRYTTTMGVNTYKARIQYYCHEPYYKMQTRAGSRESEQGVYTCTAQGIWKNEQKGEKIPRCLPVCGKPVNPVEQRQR
Put plainly: Anti-Cl esterase activity, Clr (AAME hydrolysis). The assay is classed as biochemical. The following applies: hydrolysis of AAME; read-out: Anti-Cl activity, Clr (ID50). How it is done: The anti-Cl esterase ([…]) activity was determined according to the method of Okamura et al. [K. Okamura, M. Muramatsu and B. Fujii, Biochem. Biophys.

For a further assay, the system named is complement. Kind of assay: Inhibition of complement mediated hemolysis. The assay is classed as cell-based. How it is done:
The complement mediated hemolysis is widely used as a means to determine the titration of complement. The principle of this method is based on the fact that hemolysis if caused by the activation of complement, when the latter is added to a complex (immune complex) of erythrocytes and the antibody thereof. The degree of hemolysis varies in proportion to the amount of complement added. Therefore, when a known amount of complement admixed with a Cl esterase inhibitor is used, the hemolysis must be suppressed in proportion to the inhibitory activity.
The anti-Cl esterase (Clr, Cls) activity was determined according to the method of Okamura et al. [K. Okamura, M. Muramatsu and B. Fujii, Biochem. Biophys. […] The figures in Table 2 have the following meanings: […]

As to `COC(=O)c1cc(C(=N)N)ccc1OC(=O)c1ccc(NC(=N)N)cc1` [Compound 72], the IC50 at Cls came out at 0.2 µM; on Clr it was 1 µM. The “Inhibition of complement mediated hemolysis (%)” value (from here on “Inhibition … (%)”) in the assay with complement (compound at 1 × 10^-4) worked out at 100%; with complement (compound at 1 × 10^-5) it was 87.8%; with complement (compound at 1 × 10^-6) it was 10.8%; in the assay on complement (compound at 1 × 10^-7) it was 0%.
In the case of `CCC(=Cc1ccc(NC(=N)N)cc1)C(=O)Oc1ccc(C(=N)N)cc1C(=O)c1ccccc1` [Compound 74], the IC50 on Cls is 3 µM; at Clr, more than 10 µM. For the same compound, the “Inhibition … (%)” value in the assay with complement (compound at 1 × 10^-4) was determined as 55.4%; with complement (compound at 1 × 10^-5), 5.7%; in the assay with complement (compound at 1 × 10^-6) it was 3.6%; in the assay on complement (compound at 1 × 10^-7), 0%.
As for `COc1cc(C(=N)N)ccc1OC(=O)c1ccc(NC(=N)N)c(C)c1` [Compound 75], the IC50 on Cls turned out to be 3 µM; on Clr it was 8 µM. In addition, the “Inhibition … (%)” value turned out to be 45.2% with complement (compound at 1 × 10^-4), 3.2% in the assay with complement (compound at 1 × 10^-5), 0% in the assay on complement (compound at 1 × 10^-6) and 0% with complement (compound at 1 × 10^-7).
Consider `COc1cc(C(=N)N)ccc1OC(=O)c1ccc(NC(=N)N)cc1Cl` [Compound 76], for which the IC50 on Cls and at Clr was more than 10 µM in each case. The “Inhibition … (%)” value in the assay with complement (compound at 1 × 10^-4) turned out to be 34.8%; in the assay with complement (compound at 1 × 10^-5) it was 4.8%; in the assay with complement (compound at 1 × 10^-6) it was 0%; in the assay on complement (compound at 1 × 10^-7) it was 0%.
For the compound `N=C(N)Nc1ccc(C(=O)Oc2ccc(C(=N)N)cc2C(=O)c2ccccc2)c(Cl)c1` [Compound 77], the values for the IC50 at Cls and at Clr were 0.8 µM and more than 10 µM, respectively. Further, the “Inhibition … (%)” value amounted to 97.3% in the assay with complement (compound at 1 × 10^-4), 48.9% in the assay with complement (compound at 1 × 10^-5), 1.8% in the assay on complement (compound at 1 × 10^-6) and 0% in the assay on complement (compound at 1 × 10^-7).
On to `COc1cc(C(=N)N)ccc1OC(=O)c1ccc([N+](=O)[O-])c(C)c1` [Compound 80], for which the IC50 on Cls and at Clr was more than 10 µM each time. The “Inhibition … (%)” value came to 66.5% in the assay with complement (compound at 1 × 10^-4), 6.9% with complement (compound at 1 × 10^-5), 0% in the assay with complement (compound at 1 × 10^-6) and 0% with complement (compound at 1 × 10^-7).
With `Cc1cc(C(=O)Oc2ccc(C(=N)N)cc2C(=O)c2ccccc2)ccc1[N+](=O)[O-]` [Compound 81], the IC50 on Cls and on Clr was more than 10 µM in each case. Moreover, the “Inhibition … (%)” value in the assay on complement (compound at 1 × 10^-4) was 98.2%; in the assay on complement (compound at 1 × 10^-5), 71.6%; in the assay on complement (compound at 1 × 10^-6), 4.2%; in the assay with complement (compound at 1 × 10^-7), 0%.
Turning to `COc1cc(C(=N)N)ccc1OC(=O)CCCc1ccc([N+](=O)[O-])cc1` [Compound 82], the IC50 at Cls and on Clr was more than 10 µM in each case. For the same compound, the “Inhibition … (%)” value in the assay on complement (compound at 1 × 10^-4) stood at 29.8%; in the assay with complement (compound at 1 × 10^-5) it was 0%; in the assay with complement (compound at 1 × 10^-6) it was 0%; with complement (compound at 1 × 10^-7), 0%.
Regarding `N#Cc1ccc(C(=O)Oc2ccc(C(=N)N)cc2C(=O)c2ccccc2)cc1` [Compound 83], the IC50 on Cls turned out to be 4 µM; on Clr it was 9 µM. For the same compound, the “Inhibition … (%)” value with complement (compound at 1 × 10^-4) was 100%; in the assay on complement (compound at 1 × 10^-5), 90.2%; in the assay on complement (compound at 1 × 10^-6), 12.9%.
Consider `COC(=O)c1cc(C(=N)N)ccc1OC(=O)c1ccc(F)cc1` [Compound 84], for which the IC50 at Cls was 0.4 µM; at Clr, more than 10 µM. Further, the “Inhibition … (%)” value in the assay on complement (compound at 1 × 10^-4) turned out to be 98.6%; with complement (compound at 1 × 10^-5), 67.7%; with complement (compound at 1 × 10^-6) it was 2.0%; in the assay with complement (compound at 1 × 10^-7) it was 0%.

The values above are taken from patent US4570006A, “Amidine compound, process for producing same and anti-complement agent comprising same” (Torii & Co. Ltd., priority 1981, dated 1986).
